Measurements from patent US9428510B2, “Derivatives of azaindazole or diazaindazole type for treating a cancer overexpressing Trk” (PIERRE FABRE MEDICAMENT, priority 2012, dated 2016).

What was measured:
[1] = system: KM-12 colon cancer cells; assay: Antiproliferative activity against human colon cancer cells (KM-12), ATPlite; assay type: cell-based; details: KM12, KM-12 cells, 72 hours, read-out: Cell proliferation inhibition (KM-12) IC50
Protocol: The antiproliferative activities of the compounds according to the invention were measured by the ATPlite technique (Perkin Elmer).
Adherent human colon cancer cells (KM-12 colon cancer cells are TrkA-dependent) are inoculated in 96-well plates (3500 cells/well) on day 0, at a concentration compatible with logarithmic growth for the 72 hours required for the evaluation of the compounds. All of the cells are treated on day 1 and then placed in an incubator at 37° C. under an atmosphere of 5% CO2. Cell viability is evaluated on day 4 by assaying released ATP, which is characteristic of viable cells. IC50s are determined by nonlinear regression on the basis of a sigmoidal dose/response relationship model, wherein the Hill coefficient is left variable, carried out on the GraphPad software package according to the algorithm provided.

[2] = system: KM-12 experimental tumor model; assay: In vivo antitumor activity against the KM-12 experimental tumor model; details: oral route, (q1d6)x2 weeks schedule
From the text: This activity is noticeable since colon cancer is overall poor responsive to chemotherapy.

[3] = target: T1, TrkA (Homo sapiens, UniProt P04629); assay: Test for measuring inhibition of TrkA kinase (Millipore or Kinome Scan, manufacturer's protocols); assay type: biochemical; details: 10 nM compound
T1 construct: purchased Millipore or Kinome Scan (DiscoverX)
From the text: (§1) These kinases are produced by Millipore or Kinome Scan (DiscoverX) and are screened according to the manufacturer's protocols.

[4] = target: T2, TrkB (Homo sapiens, UniProt Q16620); assay: Test for measuring inhibition of TrkB kinase (Millipore or Kinome Scan, manufacturer's protocols); assay type: biochemical; details: 10 nM compound
T2 construct: purchased Millipore or Kinome Scan (DiscoverX)
From the text: as §1

[5] = target: T3, TrkB (or NTRK2) (Homo sapiens, UniProt Q16620); assay: In vitro kinase glo plus-based kinase assay, TrkB; assay type: biochemical; details: N=36, 40 μM ATP
T3 construct: using the soluble intracellular segment of theses receptors, containing the kinase activity; purchased Invitrogen
Protocol: An in vitro kinase glo plus-based kinase assay (Promega) was developed in a 96 wells assay plate format to assess the inhibiting properties of compounds on tropomyosin related kinases (Trk) receptors, using the soluble intracellular segment of theses receptors, containing the kinase activity (TrkA (or NTRK1; 400 ng/well; […] Invitrogen)). […] Plates were removed from incubator, and 50 μl of kinase-glo plus was added to each well, followed by a 10 minute incubation at room temperature. The luciferase-induced luminescence, which is proportional to the ATP remaining in the well, was measured on a luminometer. Controls on each plates included wells with the kinase alone (maximal ATP consumption, or 0% inhibition), wells without the kinase (maximal ATP signal or 100% inhibition), and wells with 20 μM staurosporine (positive control of inhibition). […] N=42; […]

T3 sequence (Q16620 455-822 limits assumed): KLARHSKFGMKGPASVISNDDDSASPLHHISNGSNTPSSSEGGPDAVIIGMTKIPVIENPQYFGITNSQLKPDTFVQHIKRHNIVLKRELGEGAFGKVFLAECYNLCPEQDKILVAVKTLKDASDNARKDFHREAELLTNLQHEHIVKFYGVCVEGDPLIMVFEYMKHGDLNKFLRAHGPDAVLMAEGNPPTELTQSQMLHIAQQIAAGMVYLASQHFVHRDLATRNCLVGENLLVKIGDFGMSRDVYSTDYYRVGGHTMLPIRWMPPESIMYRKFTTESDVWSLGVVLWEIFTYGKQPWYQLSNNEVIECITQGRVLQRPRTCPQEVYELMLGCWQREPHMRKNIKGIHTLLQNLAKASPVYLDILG
T2 sequence (Q16620 32-822): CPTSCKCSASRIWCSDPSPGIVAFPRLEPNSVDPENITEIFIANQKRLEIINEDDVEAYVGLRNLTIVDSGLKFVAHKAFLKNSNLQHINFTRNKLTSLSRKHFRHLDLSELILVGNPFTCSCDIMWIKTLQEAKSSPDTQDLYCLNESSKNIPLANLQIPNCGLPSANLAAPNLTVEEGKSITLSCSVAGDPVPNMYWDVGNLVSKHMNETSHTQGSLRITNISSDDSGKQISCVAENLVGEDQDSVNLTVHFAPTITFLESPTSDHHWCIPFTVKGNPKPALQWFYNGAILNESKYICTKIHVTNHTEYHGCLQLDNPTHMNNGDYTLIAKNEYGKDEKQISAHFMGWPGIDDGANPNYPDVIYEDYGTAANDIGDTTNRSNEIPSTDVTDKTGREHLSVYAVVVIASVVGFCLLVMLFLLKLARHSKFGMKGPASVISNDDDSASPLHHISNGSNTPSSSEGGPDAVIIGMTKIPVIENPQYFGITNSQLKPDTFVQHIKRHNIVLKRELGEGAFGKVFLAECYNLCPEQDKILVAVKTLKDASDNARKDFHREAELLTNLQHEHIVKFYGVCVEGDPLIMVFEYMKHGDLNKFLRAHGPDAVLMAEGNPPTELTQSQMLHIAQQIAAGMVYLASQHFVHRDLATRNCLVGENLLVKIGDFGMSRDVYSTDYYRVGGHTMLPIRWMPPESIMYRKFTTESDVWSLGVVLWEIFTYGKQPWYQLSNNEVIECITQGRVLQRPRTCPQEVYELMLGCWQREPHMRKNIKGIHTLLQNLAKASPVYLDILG
T1 sequence (P04629 33-796): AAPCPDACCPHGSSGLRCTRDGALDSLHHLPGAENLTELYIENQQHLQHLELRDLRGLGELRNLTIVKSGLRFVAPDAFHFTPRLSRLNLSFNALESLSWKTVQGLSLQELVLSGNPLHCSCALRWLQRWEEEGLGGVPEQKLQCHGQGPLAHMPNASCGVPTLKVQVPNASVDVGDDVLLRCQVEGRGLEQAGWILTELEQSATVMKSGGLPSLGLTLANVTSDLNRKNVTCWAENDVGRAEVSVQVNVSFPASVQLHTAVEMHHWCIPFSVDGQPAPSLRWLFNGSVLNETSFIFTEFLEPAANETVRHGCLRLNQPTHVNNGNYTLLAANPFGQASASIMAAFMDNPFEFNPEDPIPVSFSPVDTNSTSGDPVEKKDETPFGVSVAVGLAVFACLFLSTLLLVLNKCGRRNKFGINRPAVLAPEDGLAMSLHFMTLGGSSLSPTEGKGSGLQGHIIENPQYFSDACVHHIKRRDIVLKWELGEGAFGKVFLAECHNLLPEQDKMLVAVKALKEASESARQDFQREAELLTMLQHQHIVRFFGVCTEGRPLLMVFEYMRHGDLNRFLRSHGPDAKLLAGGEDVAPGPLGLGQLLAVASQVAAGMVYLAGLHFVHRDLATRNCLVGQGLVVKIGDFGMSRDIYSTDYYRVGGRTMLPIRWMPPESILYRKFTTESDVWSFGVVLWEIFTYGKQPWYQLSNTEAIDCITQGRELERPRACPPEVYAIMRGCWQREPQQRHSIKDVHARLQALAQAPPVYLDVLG

## CN1CCN(c2ccc(C(=O)Nc3n[nH]c4nc(N)c(Sc5cc(F)cc(F)c5)cc34)c(NC3CCOCC3)c2)CC1 [Example 14-11, N-(6-amino-5-(3,5-difluorophenylthio)-1H-pyrazolo[3,4-b]pyridin-3-yl)-4-(4-methylpiperazin-1-yl)-2-(tetrahydro-2H-pyran-4-ylamino)benzamide]
[1]
  IC50: 2.2 nM

## CN1CCN(c2ccc(C(=O)Nc3n[nH]c4ncc(Sc5cc(F)cc(F)c5)cc34)c(NC3CCOCC3)c2)CC1 [Example 30, N-(5-(3,5-difluorophenylthio)-1-H-pyrazolo[3,4-b]pyridine-3-yl)-4-(4-methylpiperazine-1-yl)-2-(tetrahydro-2H-pyran-4-ylamino)benzamide]
[1]
  IC50: 36 nM
[2]; 120 and 240 mg/kg
  adverse effects: without any adverse effects
[2]; recorded at 120 and 240 mg/kg, lasts one week after the end of treatment
  tumor growth inhibition: up to 96%

## CN1CCN(c2ccc(C(=O)Nc3n[nH]c4ncc(Cc5cc(F)cc(F)c5)cc34)c(NC3CCOCC3)c2)CC1 [Example 30-9, N-(5-(3,5-difluorobenzyl)-1H-pyrazolo[3,4-b]pyridin-3-yl)-4-(4-methylpiperazin-1-yl)-2-(tetrahydro-2H-pyran-4-ylamino)benzamidc]
[3]
  Enzymatic inhibition at 10 nM (%) TrkA: 55%
[4]
  Enzymatic inhibition at 10 nM (%) TrkB: 98%

## COC(=O)[C@@]1(O)C[C@H]2O[C@]1(C)n1c3ccccc3c3c4c(c5c6ccccc6n2c5c31)C(=O)NC4 [Example K252a, K252a]
[5]
  IC50: 74 nM
[5]; mean±SD
  pIC50 on TrkB: 7.16±0.18
